Laboratory results published in patent US20100323012A1, “Pharmaceutical Compositions Comprising NEP-Inhibitors, Inhibitors of the Endogenous Endothelin Producing System and Diuretics” (Solvay Pharmaceuticals GmbH, priority 2005, published 2010).

Tested on: spontaneously hypertensive rat
Test: Telemetric monitoring of blood pressure and heart rate in spontaneously hypertensive rats, compounds given via drinking water
Type: in vivo
Details: male SHR; for effect on blood pressure (in words): 3 weeks of treatment via drinking water; for DBP (diastolic blood pressure), effect in relation to baseline, group mean of 24 hour means / HR (heart rate), effect in relation to baseline, group mean of 24 hour means / SBP (systolic blood pressure), effect in relation to baseline, group mean of 24 hour means: day 23 (after 3 weeks of treatment) minus baseline (day 3), via drinking water, intended 10 mg/kg/day hydrochlorothiazide, 100 mg/kg/day daglutril, n = 5 per group
Excerpt: Male spontaneously hypertensive rats (=SHR, insulin resistant strain from Charles River; aged 6 months) were equipped with telemetry transmitters for continuous monitoring of blood pressure and heart rate (TA11PA-C40, DSI, USA). Telemetry transmitters for continuous monitoring of blood pressure, heart rate and locomotor activity (TA11PA-C40, Data Sciences, USA) were implanted intraabdominally under inhalative halothane anesthesia. A midline abdominal incision was made, and the abdominal aorta was visualized by removal of retroperitoneal fat and connective tissue. A ligature was placed caudal of the renal arteries, the aorta was punctured with a 22G needle, and the catheter was advanced into the aorta. The entry point was sealed with tissue adhesive (Vetbond, 3M, USA), the ligature was removed, and the abdominal incision was closed. Measurements of aortic pressure were taken every 5 minutes (=min) for 4 seconds (=s) each at a sampling rate of 500 Hz, and were corrected for the corresponding ambient pressure (ambient pressure monitor, C11PR, Data Sciences, USA).
After 3 days of monitoring under baseline (untreated) conditions, animals received daglutril via their drinking water. The intended daily dose was 100 mg/kg/day of daglutril. The concentration in drinking water was adjusted once per week, resulting in an average drug intake of 98 mg/kg/day.
In a second experiment, rats were divided into two treatment groups receiving hydrochlorothiazide or hydrochlorothiazide+daglutril. Compounds were administered via the drinking water, and daily drug intake was measured by weighing the water bottles thrice weekly. Intended daily doses were 10 mg/kg/day of hydrochlorothiazide plus, in the combination group, 100 mg/kg/day of daglutril.
Concentrations of hydrochlorothiazide and daglutril in the drinking water were adjusted once per week, in order to ensure the intended daily intake of 10 and 100 mg/kg, respectively. The average daily water intake amounted to 57 and 46 ml/kg in the hydrochlorothiazide and hydrochlorothiazide+daglutril group, respectively, resulting in the uptake of 9.5 mg/kg/day of hydrochlorothiazide in the hydrochlorothiazide group, and 9.4 mg/kg/day of hydrochlorothiazide and 94.4 mg/kg/day of daglutril in the combination group.
The blood pressure, heart rate and activity values, sampled in 5 min intervals by the Dataquest™ system, were used for calculation of individual 24 hour means. These 24 hour means were exported to Excel, and group mean values of systolic blood pressure (=SBP), diastolic blood pressure (=DBP), heart rate (=HR), and locomotor activity (=ACT) were calculated for the daglutril, hydrochlorothiazide and the hydrochlorothiazide+daglutril groups. For the statistical analysis, a baseline value (pre) was calculated from the last day prior to compound application (day 3), and effects of daglutril, hydrochlorothiazide and hydrochlorothiazide+daglutril were calculated in relation to this baseline value (day 23, i.e. after 3 weeks of treatment, minus baseline value). The statistical comparison was done by using univariate ANOVA at an error level of P<0.05.

Structure (SMILES) | effect on blood pressure (in words) | DBP (diastolic blood pressure), effect in relation to baseline, group mean of 24 hour means [mmHg] | HR (heart rate), effect in relation to baseline, group mean of 24 hour means [min⁻¹] | SBP (systolic blood pressure), effect in relation to baseline, group mean of 24 hour means [mmHg]
NS(=O)(=O)c1cc2c(cc1Cl)NCNS2(=O)=O [HCTZ, hydrochlorothiazide] | moderate decrease | −7.7 | -4.5 | −11.3
CCOC(=O)C(CCc1ccccc1)CC1(C(=O)NC2CCc3ccccc3N(CC(=O)O)C2=O)CCCC1 (centres unmarked) [daglutril, 2-[1-(1-carboxymethyl-2-oxo-2,3,4,5-tetrahydro-1H-benzo[b]azepin-3-ylcarbamoyI)-cyclopentylmethyl]-4-phenyl-butyric acid ethyl ester] | no effect | 2.0 | -6.0 | −0.3
